Results reported in patent publication US5916759A, “Cholesterol oxidase from Brevibacterium sterolicum” (Boehringer Mannheim GmbH, priority 1993, dated 1999).

Legend:
[1] = biological target: Cholesterol oxidase I from Brevibacterium sterolicum (Brevibacterium sterolicum, UniProt P22637); conditions: read-out: KM (affinity for cholesterol); cited from earlier work
[2] = substrate: CC(C)CCC[C@@H](C)[C@H]1CC[C@H]2[C@@H]3CC=C4C[C@@H](O)CC[C@]4(C)[C@H]3CC[C@]12C; test: KM value for cholesterol of the cholesterol oxidase according to the invention; format: biochemical, Brevibacterium sterolicum; conditions: other: in 0.5 mol/l potassium phosphate buffer pH 7.5 at 25° C.
Method: This cholesterol oxidase has a molecular weight of 60 kD, an isoelectric point of ca. 5.5 (each measured in the Phast System, Pharmacia LKB) and a KM value for cholesterol of 1×10^-4 mol/l (in 0.5 mol/l potassium phosphate buffer pH 7.5 at 25° C.) and is active in a pH range of 5.5 to 8.0.
3 ml potassium phosphate buffer (0.5 mol/l, pH 7.5) containing 0.4% Thesit® (Boehringer Mannheim GmbH, Catalogue No. 006190),
0.1 ml cholesterol solution (0.4% cholesterol, 10% l-propanol, 10% Thesit®),
0.02 ml H2 O2 (0.49 mol/l in redistilled water), it is mixed, after addition of 0.02 ml catalase (from bovine liver, 20 mg protein/ml, specific activity ca. 65,000 U/mg, Boehringer Mannheim GmbH, Catalogue No. 0156744 diluted immediately to 0.075-0.15 U/ml before measurement with ice-cold potassium phosphate buffer, containing 0.4% Thesit) it is again mixed, the solution is brought to a temperature of 25° C. and subsequently the reaction is started by addition of 0.05 ml sample solution. After careful mixing the change in absorbance at 240 nm is monitored and the activity of cholesterol oxidase is determined from the linear region of the absorbance curve: [formula] in which .di-elect cons. 240=15.5 mmol^-1 ×1×cm^-1.

Sequence of Cholesterol oxidase I from Brevibacterium sterolicum (P22637 46-552): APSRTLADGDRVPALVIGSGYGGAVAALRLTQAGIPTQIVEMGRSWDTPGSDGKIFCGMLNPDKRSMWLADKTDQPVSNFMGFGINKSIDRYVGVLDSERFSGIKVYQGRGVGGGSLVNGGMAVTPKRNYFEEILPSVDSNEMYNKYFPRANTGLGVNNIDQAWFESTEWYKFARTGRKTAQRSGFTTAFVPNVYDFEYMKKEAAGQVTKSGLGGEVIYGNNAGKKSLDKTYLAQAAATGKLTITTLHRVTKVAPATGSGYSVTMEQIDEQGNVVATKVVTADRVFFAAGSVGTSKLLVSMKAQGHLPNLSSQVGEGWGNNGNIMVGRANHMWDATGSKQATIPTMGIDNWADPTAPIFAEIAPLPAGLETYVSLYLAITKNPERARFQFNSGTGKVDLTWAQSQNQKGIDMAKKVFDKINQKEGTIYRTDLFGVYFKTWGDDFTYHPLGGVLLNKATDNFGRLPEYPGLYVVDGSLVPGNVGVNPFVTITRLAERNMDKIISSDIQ

Molecule	Km [1]	Km [2]
CC(C)CCC[C@@H](C)[C@H]1CC[C@H]2[C@@H]3CC=C4C[C@@H](O)CC[C@]4(C)[C@H]3CC[C@]12C [cholesterol, 5-cholesten-3-β-ol]	1100 µM	
cholesterol oxidase from Brevibacterium sterolicum, SEQ ID NO 2 (Brevibacterium sterolicum) (protein) STGPVAPLPTPPNFPNDIALFQQAYQNWSKEIMLDATWVCSPKTPQDVVRLANWAHEHDYKIRPRGAMHGWTPLTVEKGANVEKVILADTMTHLNGITVNTGGPVATVTAGAGASIEAIVTELQKHDLGWANLPAPGVLSIGGALAVNAHGAALPAVGQTTLPGHTYGSLSNLVTELTAVVWNGTTYALETYQRNDPRITPLLTNLGRCFLTSVTMQAGPNFRQRCQSYTDIPWRELFAPKGADGRTFEKFVAESGGAEAIWYPFTEKPWMKVWTVSPTKPDSSNEVGSLGSAGSLVGKPPQAREVSGPYNYIFSDNLPEPITDMIGAINAGNPGIAPLFGPAMYEITKLGLAATNANDIWGWSKDVQFYIKATTLRLTEGGGAVVTSRANIATVINDFTEWFHERIEFYRAKGEFPLNGPVEIRCCGLDQAADVKVPSVGPPTISATRPRPDHPDWDVAIWLNVLGVPGTPGMFEFYREMEQWMRSHYNNDDATFRPEWSKGWAFGPDPYTDNDIVTNKMRATYIEGVPTTENWDTARARYNQIDPHRVFTNGFMDKLLP		100 µM
